Assay results taken from ChEMBL document CHEMBL4411303, “Synthesis of tetrazole derivatives bearing pyrrolidine scaffold and evaluation of their antifungal activity against Candida albicans” (Eur J Med Chem, 2019).

Columns and labels:
Assay type in all cases: functional
Candida albicans [1] = experiment: Antifungal activity against Candida albicans ATCC 90028 assessed as planktonic growth inhibition at 0.08 uM after 48 hrs by M27-A3 protocol based method relative to control; conditions: ATCC 90028, 48 h, read-out: GI
Candida albicans [2] = experiment: Antifungal activity against Candida albicans ATCC 90028 assessed as planktonic growth inhibition at 0.17 uM after 48 hrs by M27-A3 protocol based method relative to control; conditions: ATCC 90028, 48 h, read-out: GI
Candida albicans [3] = experiment: Antifungal activity against Candida albicans ATCC 90028 assessed as planktonic growth inhibition at 0.34 uM after 48 hrs by M27-A3 protocol based method relative to control; conditions: ATCC 90028, 48 h, read-out: GI
Candida albicans [4] = experiment: Antifungal activity against Candida albicans ATCC 90028 assessed as planktonic growth inhibition at 0.68 uM after 48 hrs by M27-A3 protocol based method relative to control; conditions: ATCC 90028, 48 h, read-out: GI
Candida albicans [5] = experiment: Antifungal activity against Candida albicans ATCC 90028 assessed as planktonic growth inhibition at 1.36 uM after 48 hrs by M27-A3 protocol based method relative to control; conditions: ATCC 90028, 48 h, read-out: GI
Candida albicans [6] = experiment: Antifungal activity against Candida albicans ATCC 90028 assessed as planktonic growth inhibition at 2.72 uM after 48 hrs by M27-A3 protocol based method relative to control; conditions: ATCC 90028, 48 h, read-out: GI
Candida albicans [7] = experiment: Antifungal activity against Candida albicans ATCC 90028 assessed as planktonic growth inhibition at 5.44 uM after 48 hrs by M27-A3 protocol based method relative to control; conditions: ATCC 90028, 48 h, read-out: GI
Candida albicans [8] = experiment: Antifungal activity against Candida albicans ATCC 90028 assessed as planktonic growth inhibition at 10.87 uM after 48 hrs by M27-A3 protocol based method relative to control; conditions: ATCC 90028, 48 h, read-out: GI
Candida albicans [9] = experiment: Antifungal activity against Candida albicans ATCC 90028 assessed as planktonic growth inhibition at 21.75 uM after 48 hrs by M27-A3 protocol based method relative to control; conditions: ATCC 90028, 48 h, read-out: GI
Candida albicans [10] = experiment: Antifungal activity against Candida albicans ATCC 90028 assessed as planktonic growth inhibition at 43.49 uM after 48 hrs by M27-A3 protocol based method relative to control; conditions: ATCC 90028, 48 h, read-out: GI
Candida albicans [11] = experiment: Fungicidal activity against Candida albicans ATCC 90028 assessed as log reduction in fungal load incubated for 48 hrs followed by replating on sabouraud dextrose agar plate and measured after 48 hrs
Candida albicans [12] = experiment: Antifungal activity against Candida albicans ATCC 90028 assessed as planktonic growth inhibition at 0.09 uM after 48 hrs by M27-A3 protocol based method relative to control; conditions: ATCC 90028, 48 h, read-out: GI
Candida albicans [13] = experiment: Antifungal activity against Candida albicans ATCC 90028 assessed as planktonic growth inhibition at 0.18 uM after 48 hrs by M27-A3 protocol based method relative to control; conditions: ATCC 90028, 48 h, read-out: GI
Candida albicans [14] = experiment: Antifungal activity against Candida albicans ATCC 90028 assessed as planktonic growth inhibition at 0.36 uM after 48 hrs by M27-A3 protocol based method relative to control; conditions: ATCC 90028, 48 h, read-out: GI
Candida albicans [15] = experiment: Antifungal activity against Candida albicans ATCC 90028 assessed as planktonic growth inhibition at 0.72 uM after 48 hrs by M27-A3 protocol based method relative to control; conditions: ATCC 90028, 48 h, read-out: GI
Candida albicans [16] = experiment: Antifungal activity against Candida albicans ATCC 90028 assessed as planktonic growth inhibition at 1.44 uM after 48 hrs by M27-A3 protocol based method relative to control; conditions: ATCC 90028, 48 h, read-out: GI
Candida albicans [17] = experiment: Antifungal activity against Candida albicans ATCC 90028 assessed as planktonic growth inhibition at 2.88 uM after 48 hrs by M27-A3 protocol based method relative to control; conditions: ATCC 90028, 48 h, read-out: GI
Candida albicans [18] = experiment: Antifungal activity against Candida albicans ATCC 90028 assessed as planktonic growth inhibition at 5.76 uM after 48 hrs by M27-A3 protocol based method relative to control; conditions: ATCC 90028, 48 h, read-out: GI
Candida albicans [19] = experiment: Antifungal activity against Candida albicans ATCC 90028 assessed as planktonic growth inhibition at 11.51 uM after 48 hrs by M27-A3 protocol based method relative to control; conditions: ATCC 90028, 48 h, read-out: GI
Candida albicans [20] = experiment: Antifungal activity against Candida albicans ATCC 90028 assessed as planktonic growth inhibition at 23.02 uM after 48 hrs by M27-A3 protocol based method relative to control; conditions: ATCC 90028, 48 h, read-out: GI
Candida albicans [21] = experiment: Antifungal activity against Candida albicans ATCC 90028 assessed as planktonic growth inhibition at 46.05 uM after 48 hrs by M27-A3 protocol based method relative to control; conditions: ATCC 90028, 48 h, read-out: GI
Candida albicans [22] = experiment: Antifungal activity against Candida albicans ATCC 90028 assessed as planktonic growth inhibition at 0.16 uM after 48 hrs by M27-A3 protocol based method relative to control; conditions: ATCC 90028, 48 h, read-out: GI
Candida albicans [23] = experiment: Antifungal activity against Candida albicans ATCC 90028 assessed as planktonic growth inhibition at 0.33 uM after 48 hrs by M27-A3 protocol based method relative to control; conditions: ATCC 90028, 48 h, read-out: GI
Candida albicans [24] = experiment: Antifungal activity against Candida albicans ATCC 90028 assessed as planktonic growth inhibition at 0.65 uM after 48 hrs by M27-A3 protocol based method relative to control; conditions: ATCC 90028, 48 h, read-out: GI
Candida albicans [25] = experiment: Antifungal activity against Candida albicans ATCC 90028 assessed as planktonic growth inhibition at 1.31 uM after 48 hrs by M27-A3 protocol based method relative to control; conditions: ATCC 90028, 48 h, read-out: GI
Candida albicans [26] = experiment: Antifungal activity against Candida albicans ATCC 90028 assessed as planktonic growth inhibition at 2.62 uM after 48 hrs by M27-A3 protocol based method relative to control; conditions: ATCC 90028, 48 h, read-out: GI
Candida albicans [27] = experiment: Antifungal activity against Candida albicans ATCC 90028 assessed as planktonic growth inhibition at 5.24 uM after 48 hrs by M27-A3 protocol based method relative to control; conditions: ATCC 90028, 48 h, read-out: GI
Candida albicans [28] = experiment: Antifungal activity against Candida albicans ATCC 90028 assessed as planktonic growth inhibition at 10.47 uM after 48 hrs by M27-A3 protocol based method relative to control; conditions: ATCC 90028, 48 h, read-out: GI
Candida albicans [29] = experiment: Antifungal activity against Candida albicans ATCC 90028 assessed as planktonic growth inhibition at 20.95 uM after 48 hrs by M27-A3 protocol based method relative to control; conditions: ATCC 90028, 48 h, read-out: GI
Candida albicans [30] = experiment: Antifungal activity against Candida albicans ATCC 90028 assessed as planktonic growth inhibition at 41.9 uM after 48 hrs by M27-A3 protocol based method relative to control; conditions: ATCC 90028, 48 h, read-out: GI

SMILES	inhibition of growth at 0.08 µM (Candida albicans [1])	inhibition of growth at 0.17 µM (Candida albicans [2])	inhibition of growth at 0.34 µM (Candida albicans [3])	inhibition of growth at 0.68 µM (Candida albicans [4])	inhibition of growth at 1.36 µM (Candida albicans [5])	inhibition of growth at 2.72 µM (Candida albicans [6])	inhibition of growth at 5.44 µM (Candida albicans [7])	inhibition of growth at 10.87 µM (Candida albicans [8])	inhibition of growth at 21.75 µM (Candida albicans [9])	inhibition of growth at 43.49 µM (Candida albicans [10])	log(activity) (Candida albicans [11])	inhibition of growth at 0.16 µM (Candida albicans [22])	inhibition of growth at 0.33 µM (Candida albicans [23])	inhibition of growth at 0.65 µM (Candida albicans [24])	inhibition of growth at 1.31 µM (Candida albicans [25])	inhibition of growth at 2.62 µM (Candida albicans [26])	inhibition of growth at 5.24 µM (Candida albicans [27])	inhibition of growth at 10.47 µM (Candida albicans [28])	inhibition of growth at 20.95 µM (Candida albicans [29])	inhibition of growth at 41.9 µM (Candida albicans [30])	other results
Clc1ccccc1-c1nnn(CCCN2CCCC2c2ccccc2)n1 (stereo not given)	98.8%	98.9%	99%	99%	99.1%	99.1%	99.1%	99.2%	99.4%	99.5%	-0.3	–	–	–	–	–	–	–	–	–	–
Cc1ccc(-c2nnn(CCCN3CCCC3c3ccccc3)n2)cc1 (stereo not given)	–	–	–	–	–	–	–	–	–	–	-1	–	–	–	–	–	–	–	–	–	inhibition of growth at 0.09 µM (Candida albicans [12]): 99%; inhibition of growth at 0.18 µM (Candida albicans [13]): 99.8%; inhibition of growth at 0.36 µM (Candida albicans [14]): 98.8%; inhibition of growth at 0.72 µM (Candida albicans [15]): 98.8%; inhibition of growth at 1.44 µM (Candida albicans [16]): 97.8%; inhibition of growth at 2.88 µM (Candida albicans [17]): 95.1%; inhibition of growth at 5.76 µM (Candida albicans [18]): 94.4%; inhibition of growth at 11.51 µM (Candida albicans [19]): 93.4%; inhibition of growth at 23.02 µM (Candida albicans [20]): 99.4%; inhibition of growth at 46.05 µM (Candida albicans [21]): 98.5%
Cc1ccc(-c2nnn(CCCN3CCCC3c3ccc(Cl)cc3)n2)cc1 (stereo not given)	99.4%	–	–	–	–	–	–	–	–	–	-0.4	99.5%	99.2%	99.1%	99.2%	99.3%	99%	99.4%	99.2%	98.8%	–
Clc1ccc(C2CCCN2CCCn2nnc(-c3ccccc3)n2)cc1 (stereo not given)	99.4%	99.3%	99.4%	99.4%	99.4%	99.2%	99.3%	99.2%	99.4%	99.6%	-1.4	–	–	–	–	–	–	–	–	–	–
Cc1ccc(C2CCCN2CCCn2nnc(-c3ccccc3Cl)n2)cc1 (stereo not given)	98.8%	–	–	–	–	–	–	–	–	–	-0.2	98.9%	99.2%	99.2%	99.2%	99.3%	99.4%	99.5%	99.5%	99.6%	–
